According to PMC10712729, “A Phase I Trial of the Dual MET Kinase/OCT-2 Inhibitor OMO-1 in Metastatic Solid Malignancies Including MET Exon 14 Mutated Lung Cancer” (The Oncologist, 2023):
“Also recorded” adds a separate entry of the source.

Tests used:
[1] = tested on: MET amplified NSCLC or other MET positive solid tumors; experiment: Preliminary efficacy by RECIST v1.1, Module 1 Part B cohort 2 (MET basket); type: in vivo, human; details: 5/5 patients, 200 or 250 mg BID
Procedure: The starting dose was 100 mg BID.
Safety analyses were descriptive.

[2] = Phase I safety and tolerability of OMO-1 monotherapy, Module 1 Part A dose escalation (drug-related TEAEs, DLTs, RP2D)
Text: This study was part of a modular, first-in-patient, openlabel multicenter study of OMO-1, administered orally, mono-therapy, and in combination with EGFR-TKI, in patients with locally advanced, unresectable, or metastatic solid malignancies (study protocol can be). […] Module 1 (OMO-1 monotherapy) consisted of Part A (dose escalation) and Part B (expansion cohorts). Part A assessed the safety and tolerability of ascending doses of OMO-1 given as monotherapy in unselected patients with locally advanced, unresectable, or metastatic malignancies and determined the recommended phase 2 dose (RP2D). Part B assessed the preliminary efficacy of the RP2D of OMO-1 in patients with METex14-positive NSCLC (cohort 1) and patients with MET amplified NSCLC or patients with other MET positive solid tumors, either METex14 or MET amplification (MET basket; cohort 2). The MET status of the tumor was assessed locally by site-specific guidelines. For MET exon 14 skipping mutations next generation sequencing (NGS) was used and for MET amplifications either NGS or fluorescence in situ hybridization (Supplementary 1). Prior treatment with a MET inhibitor was an exclusion criterion.
OMO-1 was administered orally, twice daily (BID) with a minimal interval of 4-5 h with food in a continuous 21 day/cycle regimen until clinical progression or emergence of significant toxicity. The starting dose was 100 mg BID. The dose was escalated sequentially in cohorts of at least 3 patients using a standard 3 + 3 dose escalation design. […] During the monotherapy dose escalation Module 1 Part A, blood samples were collected for PK analysis throughout the study as per protocol (S1).
The dose-limiting toxicity (DLT) evaluation period was within the first cycle of treatment; although all events beyond this point were also reviewed at the time of dose escalation to ensure an OLED was chosen as RP2D.
Safety analyses were descriptive. With respect to primary objectives and endpoints, no specific hypotheses were tested statistically. The primary focus was on determining the safety profile and RP2D, and the identification of a range of biologically active doses and PK of OMO-1 in patients with cancer. Safety, PK, and PD biomarker data were reviewed on an ongoing basis in line with the cohort progression criteria by the Safety Review Committee (SRC).

Structure (SMILES): FC(F)(c1ccc2ncccc2c1)c1nnc2ccc(-c3ccncc3)nn12 [OMO-1]
- clinical benefit [1]: No clinical benefit of any length; also recorded: no clinical efficacy
- increased blood creatinine, drug-related TEAE ([2]; 100 mg BID cohort): no events
- Fatigue, proportion of patients ([2]; 100 mg BID cohort, 1 patient): 20.0%
- Decreased appetite, Drug-related TEAEs, All grades ([2]; 100 mg BID n = 5): 1 (20%) n (%)
- Dizziness, Drug-related TEAEs, All grades ([2]; 100 mg BID n = 5): 1 (20%) n (%)
- Fatigue, Drug-related TEAEs, All grades ([2]; 100 mg BID n = 5): 1 (20%) n (%)
- Headache, Drug-related TEAEs, All grades ([2]; 100 mg BID n = 5): 1 (20%) n (%)
- Nausea, Drug-related TEAEs, All grades ([2]; 100 mg BID n = 5): 2 (40%) n (%)
- Nausea, Drug-related TEAEs, Grade ≥3 ([2]; 100 mg BID n = 5): 1 (20%) n (%)
- Nausea, Drug-related TEAEs, SAE ([2]; 100 mg BID n = 5): 1 (20%) n (%)
- Total n with AE, Drug-related TEAEs, All grades ([2]; 100 mg BID n = 5): 5 (100%) n (%)
- Total n with AE, Drug-related TEAEs, Grade ≥3 ([2]; 100 mg BID n = 5): 2 (40%) n (%)
- Total n with AE, Drug-related TEAEs, SAE ([2]; 100 mg BID n = 5): 2 (40%) n (%)
- Vomiting, Drug-related TEAEs, All grades ([2]; 100 mg BID n = 5): 1 (20%) n (%)
- Vomiting, Drug-related TEAEs, Grade ≥3 ([2]; 100 mg BID n = 5): 1 (20%) n (%)
- Vomiting, Drug-related TEAEs, SAE ([2]; 100 mg BID n = 5): 1 (20%) n (%)
- Anemia, Drug-related TEAEs, All grades ([2]; 200 mg BID n = 4): 2 (50%) n (%)
- Anemia, Drug-related TEAEs, Grade ≥3 ([2]; 200 mg BID n = 4): 1 (25%) n (%)
- Blood creatinine ↑, Drug-related TEAEs, All grades ([2]; 200 mg BID n = 4): 3 (75%) n (%)
- Chills/ influenza like symptoms, Drug-related TEAEs, All grades ([2]; 200 mg BID n = 4): 1 (25%) n (%)
- Chills/ influenza like symptoms, Drug-related TEAEs, SAE ([2]; 200 mg BID n = 4): 1 (25%) n (%)
- Decreased appetite, Drug-related TEAEs, All grades ([2]; 200 mg BID n = 4): 1 (25%) n (%)
- Diarrhoea, Drug-related TEAEs, All grades ([2]; 200 mg BID n = 4): 2 (50%) n (%)
- Dizziness, Drug-related TEAEs, All grades ([2]; 200 mg BID n = 4): 1 (25%) n (%)
- Fatigue, Drug-related TEAEs, All grades ([2]; 200 mg BID n = 4): 1 (25%) n (%)
- Headache, Drug-related TEAEs, All grades ([2]; 200 mg BID n = 4): 3 (75%) n (%)
- Nausea, Drug-related TEAEs, All grades ([2]; 200 mg BID n = 4): 3 (75%) n (%)
- Total n with AE, Drug-related TEAEs, All grades ([2]; 200 mg BID n = 4): 4 (100%) n (%)
- Total n with AE, Drug-related TEAEs, Grade ≥3 ([2]; 200 mg BID n = 4): 1 (25%) n (%)
- Total n with AE, Drug-related TEAEs, SAE ([2]; 200 mg BID n = 4): 1 (25%) n (%)
- Vomiting, Drug-related TEAEs, All grades ([2]; 200 mg BID n = 4): 2 (50%) n (%)
- Vomiting, Drug-related TEAEs, Grade ≥3 ([2]; 200 mg BID n = 4): 1 (25%) n (%)
- diarrhea, all grades ([2]; 250 mg BD): 14%
- nausea, all grades ([2]; 250 mg BD): 57%
- vomiting, all grades ([2]; 250 mg BD): 43%
- Anemia, Drug-related TEAEs, All grades ([2]; 250 mg BID n = 7): 1 (14%) n (%)
- Blood creatinine ↑, Drug-related TEAEs, All grades ([2]; 250 mg BID n = 7): 3 (43%) n (%)
- Blood creatinine ↑, Drug-related TEAEs, Grade ≥3 ([2]; 250 mg BID n = 7): 1 (14%) n (%)
- Decreased appetite, Drug-related TEAEs, All grades ([2]; 250 mg BID n = 7): 1 (14%) n (%)
- Diarrhoea, Drug-related TEAEs, All grades ([2]; 250 mg BID n = 7): 1 (14%) n (%)
- Dizziness, Drug-related TEAEs, All grades ([2]; 250 mg BID n = 7): 1 (14%) n (%)
- Fatigue, Drug-related TEAEs, All grades ([2]; 250 mg BID n = 7): 3 (43%) n (%)
- Fatigue, Drug-related TEAEs, Grade ≥3 ([2]; 250 mg BID n = 7): 1 (14%) n (%)
- Nausea, Drug-related TEAEs, All grades ([2]; 250 mg BID n = 7): 4 (57%) n (%)
- Nausea, Drug-related TEAEs, SAE ([2]; 250 mg BID n = 7): 1 (14%) n (%)
- Tachycardia, Drug-related TEAEs, All grades ([2]; 250 mg BID n = 7): 1 (14%) n (%)
- Total n with AE, Drug-related TEAEs, All grades ([2]; 250 mg BID n = 7): 7 (100%) n (%)
- Total n with AE, Drug-related TEAEs, SAE ([2]; 250 mg BID n = 7): 1 (14%) n (%)
- Vomiting, Drug-related TEAEs, All grades ([2]; 250 mg BID n = 7): 3 (43%) n (%)
- patients discontinued due to related toxicity ([2]; 350 mg BID and 400 mg BID cohort): 4/8
- increased blood creatinine, drug-related TEAE ([2]; 350 mg BID cohort): no events
- Chills/ influenza like symptoms, Drug-related TEAEs, All grades ([2]; 350 mg BID n = 5): 1 (20%) n (%)
- Decreased appetite, Drug-related TEAEs, All grades ([2]; 350 mg BID n = 5): 1 (20%) n (%)
- Dizziness, Drug-related TEAEs, All grades ([2]; 350 mg BID n = 5): 1 (20%) n (%)
- Fatigue, Drug-related TEAEs, All grades ([2]; 350 mg BID n = 5): 3 (60%) n (%)
- Headache, Drug-related TEAEs, All grades ([2]; 350 mg BID n = 5): 1 (20%) n (%)
- Nausea, Drug-related TEAEs, All grades ([2]; 350 mg BID n = 5): 1 (20%) n (%)
- Tachycardia, Drug-related TEAEs, All grades ([2]; 350 mg BID n = 5): 1 (20%) n (%)
- Total n with AE, Drug-related TEAEs, All grades ([2]; 350 mg BID n = 5): 4 (80%) n (%)
- Total n with AE, Drug-related TEAEs, SAE ([2]; 350 mg BID n = 5): 1 (20%) n (%)
- Vomiting, Drug-related TEAEs, All grades ([2]; 350 mg BID n = 5): 3 (60%) n (%)
